Values quoted from earlier work in paper PMC11765717, “In Vitro Insights into Bacteriocin-Mediated Modulation of Chicken Cecal Microbiota” (International Journal of Molecular Sciences, 2025).

Tests used:
L. ivanovii = system: L. ivanovii; design: method as in PMID 35170996; details: sensitive strain L. ivanovii; ref [64]; cited from earlier work
[1] = ref [67],[76]; cited from earlier work

## Pediocin PA-1 (M31L) (KYYGNGVTCGKHSCSVDWGKATTCIINNGALAWATGGHQGNHKC; UniProt P29430 19-62, looked up, variant M31L)
L. ivanovii
  MIC (µg/mL): 0.09 µg/mL
[1]
  Antibacterial activity in conditions mimicking the small intestine, in words: losing its antibacterial activity completely
